# ChEMBL document CHEMBL4699490, “Production of Highly Active Antiparasitic Compounds from the Controlled Halogenation of the Arrabidaea brachypoda Crude Plant Extract” (J Nat Prod, 2020)
# Key:
# [1] = Cytotoxicity against Balb/c mouse peritoneal macrophage assessed as cell viability measured after 72 hrs by alamar blue assay; format: tissue-based; details: peritoneal macrophages
# Leishmania amazonensis = experiment: Antiparasitic activity against intracellular Leishmania amazonensis amastigotes infected in mouse peritoneal macrophage measured after 72 hrs; format: functional, organism-based
# [2] = Selectivity index, ratio of CC50 for mouse peritoneal macrophages to IC50 for Leishmania amazonensis amastigotes infected in BALB/c mouse peritoneal macrophages; format: toxicity; details: read-out: Ratio CC50/IC50
# Trypanosoma cruzi = experiment: Antiparasitic activity against intracellular Trypanosoma cruzi amastigotes infected in mouse peritoneal macrophage measured after 72 hrs; format: functional, organism-based
# [3] = Selectivity index, ratio of CC50 for mouse peritoneal macrophages to IC50 for Trypanosoma cruzi amastigotes infected in BALB/c mouse peritoneal macrophages; format: toxicity; details: read-out: Ratio CC50/IC50
IC50 (Leishmania amazonensis) [µM],IC50 (Trypanosoma cruzi) [nM],Compound,CC50 at 72 h [1] [µM],selectivity ratio [2],selectivity ratio [3]
> 20,–,COc1cc(O)cc2c1[C@@H](/C=C/c1ccc(O)cc1)[C@@H]1[C@@H](c3ccccc3)Oc3cc(O)cc(OC)c3[C@@H]1O2,> 20,–,–
2.2,–,COc1ccc(/C=C/[C@@H]2c3c(OC)cc(O)cc3O[C@H]3c4c(OC)cc(O)cc4O[C@H](c4ccccc4)[C@@H]23)cc1,> 20,9.1,–
6.3,–,COc1cc(O)cc2c1[C@@H](/C=C/c1ccccc1)[C@@H]1[C@@H](c3ccccc3)Oc3cc(O)cc(OC)c3[C@@H]1O2,> 20,3.2,–
3.6,4700,COc1ccc(/C=C/[C@@H]2c3c(OC)cc(O)c(Br)c3O[C@H]3c4c(OC)cc(O)c(Br)c4O[C@H](c4ccccc4)[C@@H]23)cc1,> 100,> 28,> 21
3.4,2200,COc1ccc(/C=C/[C@@H]2c3c(OC)cc(O)c(Cl)c3O[C@H]3c4c(OC)cc(O)c(Cl)c4O[C@H](c4ccccc4)[C@@H]23)cc1,> 100,> 29,> 45
> 10,1900,COc1cc(O)c(I)c2c1[C@@H](/C=C/c1ccccc1)[C@@H]1[C@@H](c3ccccc3)Oc3cc(O)cc(OC)c3[C@@H]1O2,> 100,–,> 53
1.7,1600,COc1cc(O)c(Br)c2c1[C@@H](/C=C/c1ccccc1)[C@@H]1[C@@H](c3ccccc3)Oc3c(Br)c(O)cc(OC)c3[C@@H]1O2,> 100,> 59,> 63
5.4,1600,COc1ccc(/C=C/[C@@H]2c3c(OC)cc(O)cc3O[C@H]3c4c(OC)cc(O)c(I)c4O[C@H](c4ccccc4)[C@@H]23)cc1,> 100,> 19,> 63
> 10,1400,COc1ccc(/C=C/[C@@H]2c3c(OC)cc(O)c(Cl)c3O[C@H]3c4c(OC)cc(O)cc4O[C@H](c4ccccc4)[C@@H]23)cc1,> 100,–,> 71
6.5,> 10000,COc1cc(O)c(Br)c2c1[C@@H]1Oc3c(Br)c(O)c(Br)c(OC)c3[C@@H](/C=C/c3ccc(O)cc3)[C@@H]1[C@@H](c1ccccc1)O2,> 100,> 15,–
7.8,1800,COc1cc(O)c(I)c2c1[C@@H](/C=C/c1ccc(O)cc1)[C@@H]1[C@@H](c3ccccc3)Oc3c(I)c(O)cc(OC)c3[C@@H]1O2,> 100,> 13,> 56
3.9,6500,COc1cc(O)c(I)c2c1[C@@H](/C=C/c1ccccc1)[C@@H]1[C@@H](c3ccccc3)Oc3c(I)c(O)cc(OC)c3[C@@H]1O2,> 100,> 26,> 15
2.5,8300,COc1cc(O)c(Br)c2c1[C@@H](/C=C/c1ccc(O)cc1)[C@@H]1[C@@H](c3ccccc3)Oc3c(Br)c(O)cc(OC)c3[C@@H]1O2,> 100,> 40,> 12
4.5,3800,COc1ccc(/C=C/[C@@H]2c3c(OC)c(Br)c(O)c(Br)c3O[C@H]3c4c(OC)cc(O)c(Br)c4O[C@H](c4ccccc4)[C@@H]23)cc1,> 100,> 22,> 26
4.7,2500,COc1ccc(/C=C/[C@@H]2c3c(OC)cc(O)c(I)c3O[C@H]3c4c(OC)cc(O)c(I)c4O[C@H](c4ccccc4)[C@@H]23)cc1,> 100,> 21,> 40
1,2900,COc1cc(O)c(Br)c2c1[C@@H]1Oc3c(Br)c(O)c(Br)c(OC)c3[C@@H](/C=C/c3ccccc3)[C@@H]1[C@@H](c1ccccc1)O2,> 100,> 100,> 34
3.3,3600,COc1ccc(/C=C/[C@@H]2c3c(OC)cc(O)c(Br)c3O[C@H]3c4c(OC)cc(O)cc4O[C@H](c4ccccc4)[C@@H]23)cc1,> 100,> 30,> 28
1.2,1400,COc1cc(O)c(Cl)c2c1[C@@H](/C=C/c1ccccc1)[C@@H]1[C@@H](c3ccccc3)Oc3cc(O)cc(OC)c3[C@@H]1O2,> 100,> 83,> 71
0.2,–,C[C@@H]1[C@H](O)[C@@H](C)/C=C/C=C/C=C/C=C/C=C/C=C/C=C/[C@H](O[C@@H]2O[C@H](C)[C@@H](O)[C@H](N)[C@@H]2O)C[C@@H]2O[C@](O)(C[C@@H](O)C[C@@H](O)[C@H](O)CC[C@@H](O)C[C@@H](O)CC(=O)O[C@H]1C)C[C@H](O)[C@H]2C(=O)O [AMPHOTERICIN B],> 50,> 217,–
–,1400,O=C(Cn1ccnc1[N+](=O)[O-])NCc1ccccc1 [BENZNIDAZOLE],> 100,–,> 35
